From ChEMBL document CHEMBL1201862, “PubChem BioAssay data set” (2004)
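Tested at 5 concentrations; 48 h exposure; 96-well plates; endpoints linearly interpolated, else capped at highest concentration. GI50: concentration for 50% inhibition of growth.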 Active and inactive are the calls of the source. No stated cut-off is given here; in the data, active = GI50 up to about 1.1 µM and inactive = higher.

Assays:
Test in all cases: growth of human tumour cells (NCI), 48 h
HOP-92 = system: HOP-92
IGROV-1 = system: IGROV-1
U-251 = system: U-251
UACC-257 = system: UACC-257
K562 = system: K562
NCI-H522 = system: NCI-H522
A498 = system: A498
NCI-H226 = system: NCI-H226
LOX IMVI = system: LOX IMVI
Malme-3M = system: Malme-3M
OVCAR-3 = system: OVCAR-3
SNB-75 = system: SNB-75
OVCAR-8 = system: OVCAR-8
MDA-MB-435 = system: MDA-MB-435
NCI/ADR-RES = system: NCI/ADR-RES
A549 = system: A549
786-0 = system: 786-0
M14 = system: M14
UO-31 = system: UO-31
CCRF-CEM = system: CCRF-CEM

Row | Structure (SMILES) | GI50 (HOP-92) | GI50 (IGROV-1) | GI50 (U-251) | GI50 (UACC-257) | GI50 (K562) | GI50 (NCI-H522) | GI50 (A498) | GI50 (NCI-H226) | GI50 (LOX IMVI) | GI50 (Malme-3M) | GI50 (OVCAR-3) | GI50 (SNB-75) | GI50 (OVCAR-8) | GI50 (MDA-MB-435) | GI50 (NCI/ADR-RES) | GI50 (A549) | GI50 (786-0) | GI50 (M14) | GI50 (UO-31) | GI50 (CCRF-CEM)
1 | CC(=O)c1c(-c2ccccc2)c(-c2ccc(OCCN(C)C)cc2)n2ccccc12 | 10.1 µM (inactive) | 16.6 µM (inactive) | 17 µM (inactive) | 15.5 µM (inactive) | 13.4 µM (inactive) | 14.1 µM (inactive) | 19.2 µM (inactive) | 15.2 µM (inactive) | 15.7 µM (inactive) | 11.9 µM (inactive) | 16.6 µM (inactive) | 12.4 µM (inactive) | 14.9 µM (inactive) | 17.7 µM (inactive) | 14.5 µM (inactive) | 21.2 µM (inactive) | 18.3 µM (inactive) | 16.7 µM (inactive) | 16.7 µM (inactive) | 21 µM (inactive)
2 | CC(=O)c1c(-c2ccc(Cl)cc2)c(C#N)c(=S)n(C2OC(CO)C(O)C(O)C2O)c1C (stereo not given) | 13.1 µM (inactive) | 35.6 µM (inactive) | 36.8 µM (inactive) | 82.4 µM (inactive) | 32.4 µM (inactive) | 32.3 µM (inactive) | 50.7 µM (inactive) | 58.3 µM (inactive) | 30.1 µM (inactive) | 67 µM (inactive) | 30.8 µM (inactive) | > 100 µM (inactive) | > 100 µM (inactive) | 37.8 µM (inactive) | > 100 µM (inactive) | 71 µM (inactive) | 63.2 µM (inactive) | 57.7 µM (inactive) | 1.44 µM (inactive) | 25.9 µM (inactive)
3 | COc1ccc2nc(-n3c(/C=C/c4ccccc4O)nc4ccccc4c3=O)sc2c1 | 60.8 µM (inactive) | 39.6 µM (inactive) | > 100 µM (inactive) | > 100 µM (inactive) | 20.4 µM (inactive) | 58.1 µM (inactive) | 29.9 µM (inactive) | 36 µM (inactive) | 69.5 µM (inactive) | 71.6 µM (inactive) | > 100 µM (inactive) | 72.1 µM (inactive) | > 100 µM (inactive) | 19.7 µM (inactive) | 55.3 µM (inactive) | 39.4 µM (inactive) | 35.9 µM (inactive) | 33.6 µM (inactive) | 64.6 µM (inactive) | 16.1 µM (inactive)
4 | C=C1CC(Cn2cc(Br)c(=O)[nH]c2=O)(c2ccc(Br)cc2)OC1=O (stereo not given) | 1.33 µM (inactive) | 1.89 µM (inactive) | 13.3 µM (inactive) | 1.82 µM (inactive) | 0.644 µM (active) | 1.6 µM (inactive) | 1.22 µM (inactive) | 13.4 µM (inactive) | 1.58 µM (inactive) | 1.87 µM (inactive) | 3.34 µM (inactive) | 13.2 µM (inactive) | 15.3 µM (inactive) | 2.88 µM (inactive) | 2.59 µM (inactive) | 14.8 µM (inactive) | 1.63 µM (inactive) | 1.59 µM (inactive) | 14.1 µM (inactive) | 0.614 µM (active)
5 | NC1CC(=O)c2c(I)sc(I)c21 (stereo not given) | 22.8 µM (inactive) | 15.2 µM (inactive) | 9.79 µM (inactive) | 19.8 µM (inactive) | 8.95 µM (inactive) | 7.69 µM (inactive) | 20 µM (inactive) | 19.1 µM (inactive) | 13.3 µM (inactive) | 13.7 µM (inactive) | 20 µM (inactive) | 20.6 µM (inactive) | 20.6 µM (inactive) | 16.4 µM (inactive) | 26.9 µM (inactive) | 29.8 µM (inactive) | 11.2 µM (inactive) | 27.2 µM (inactive) | 19.2 µM (inactive) | 3.27 µM (inactive)
6 | COC(=O)Cc1c(/C=C/C(C)(C)n2cnc(CCN3C(=O)CCC3=O)c2)[nH]c2ccccc12 | 53.6 µM (inactive) | > 100 µM (inactive) | > 100 µM (inactive) | > 100 µM (inactive) | > 100 µM (inactive) | 43.4 µM (inactive) | > 100 µM (inactive) | > 100 µM (inactive) | > 100 µM (inactive) | 37 µM (inactive) | > 100 µM (inactive) | 50.4 µM (inactive) | > 100 µM (inactive) | > 100 µM (inactive) | > 100 µM (inactive) | 94.6 µM (inactive) | > 100 µM (inactive) | > 100 µM (inactive) | 74.8 µM (inactive) | 40.4 µM (inactive)
7 | Clc1ccc(C2C3COc4ccccc4C3=NN2c2ccccc2)cc1 (stereo not given) | > 100 µM (inactive) | > 69 µM (inactive) | 36.1 µM (inactive) | > 100 µM (inactive) | 3.19 µM (inactive) | 17.8 µM (inactive) | > 100 µM (inactive) | 30 µM (inactive) | 7.19 µM (inactive) | > 100 µM (inactive) | > 57.3 µM (inactive) | > 70.3 µM (inactive) | > 69.5 µM (inactive) | 36.5 µM (inactive) | 29.7 µM (inactive) | > 100 µM (inactive) | > 29.6 µM (inactive) | 96.8 µM (inactive) | > 100 µM (inactive) | 2.38 µM (inactive)
8 | COc1ccccc1C(=O)c1c(N2CCCCC2)c(=O)c1=O | > 100 µM (inactive) | > 100 µM (inactive) | > 100 µM (inactive) | > 100 µM (inactive) | > 100 µM (inactive) | 59.3 µM (inactive) | > 100 µM (inactive) | > 100 µM (inactive) | > 100 µM (inactive) | > 100 µM (inactive) | > 100 µM (inactive) | > 100 µM (inactive) | > 100 µM (inactive) | > 100 µM (inactive) | > 100 µM (inactive) | > 100 µM (inactive) | > 100 µM (inactive) | > 100 µM (inactive) | > 100 µM (inactive) | > 100 µM (inactive)
9 | CCOP(=O)(OCC)/C(C#N)=C/c1[nH]cnc1C | > 100 µM (inactive) | > 100 µM (inactive) | > 100 µM (inactive) | > 100 µM (inactive) | > 100 µM (inactive) | > 100 µM (inactive) | > 100 µM (inactive) | > 100 µM (inactive) | > 100 µM (inactive) | > 100 µM (inactive) | > 100 µM (inactive) | > 100 µM (inactive) | > 100 µM (inactive) | > 100 µM (inactive) | > 100 µM (inactive) | > 100 µM (inactive) | > 100 µM (inactive) | > 100 µM (inactive) | > 100 µM (inactive) | > 100 µM (inactive)
10 | N#Cc1c(-c2ccccc2)cc(Nc2ccc(Cl)cc2)n2c1nc1ccccc12 | 0.397 µM (active) | 1.36 µM (inactive) | 2.49 µM (inactive) | 1.91 µM (inactive) | 1.49 µM (inactive) | 1.91 µM (inactive) | 3.71 µM (inactive) | 4.45 µM (inactive) | 3.75 µM (inactive) | 5.16 µM (inactive) | 1.85 µM (inactive) | 5.47 µM (inactive) | 2.96 µM (inactive) | 2.99 µM (inactive) | 2.44 µM (inactive) | 1.71 µM (inactive) | 2.62 µM (inactive) | 4.23 µM (inactive) | 2.49 µM (inactive) | 4.66 µM (inactive)
11 | CC(=O)C(CN1CCCCC1)C(c1ccccc1)c1c(O)c2ccccc2oc1=O (stereo not given) | 41 µM (inactive) | > 100 µM (inactive) | > 100 µM (inactive) | > 100 µM (inactive) | > 100 µM (inactive) | > 100 µM (inactive) | > 100 µM (inactive) | > 100 µM (inactive) | > 100 µM (inactive) | > 100 µM (inactive) | > 100 µM (inactive) | > 100 µM (inactive) | > 100 µM (inactive) | > 100 µM (inactive) | > 100 µM (inactive) | > 100 µM (inactive) | > 100 µM (inactive) | > 100 µM (inactive) | > 100 µM (inactive) | > 100 µM (inactive)
12 | Cc1cc2c(c(=O)n1C)SCC2 | > 100 µM (inactive) | > 100 µM (inactive) | > 100 µM (inactive) | > 100 µM (inactive) | > 100 µM (inactive) | > 100 µM (inactive) | > 100 µM (inactive) | > 100 µM (inactive) | > 100 µM (inactive) | > 100 µM (inactive) | > 100 µM (inactive) | > 100 µM (inactive) | > 100 µM (inactive) | > 100 µM (inactive) | > 100 µM (inactive) | > 100 µM (inactive) | > 100 µM (inactive) | > 100 µM (inactive) | > 100 µM (inactive) | > 100 µM (inactive)
13 | Cc1[nH]c2ccccc2c1/C=N/c1ccc(/N=C/c2c(C)[nH]c3ccccc23)cc1 | 25.5 µM (inactive) | 49.9 µM (inactive) | 29.6 µM (inactive) | 67.3 µM (inactive) | 21.2 µM (inactive) | 17.5 µM (inactive) | 52.1 µM (inactive) | 14 µM (inactive) | 19.1 µM (inactive) | 30.8 µM (inactive) | 41 µM (inactive) | 48.3 µM (inactive) | 29.7 µM (inactive) | 19.7 µM (inactive) | 80.5 µM (inactive) | 80 µM (inactive) | 18.8 µM (inactive) | 71.3 µM (inactive) | 77.4 µM (inactive) | 15.4 µM (inactive)
